Assay: CO release rates from free CORM and OCORS systems
Type: physicochemical
Protocol: This example illustrates the influence of the wall thickness of the silicone membrane on the release rate of the therapeutic gas.
The trigger compounds FeCl3 and Na2SO3 were used in aqueous solution and in molar excess amounts relative to the CORM.
In Table 1, Cmax describes the highest value measured for the therapeutic gas concentration. Tmax is the time, at which this value was measured. 090% describes 90% of Cmax, and T90% is the time point, at which 90% of Cmax were released. For the free metal carbonyl, a different release vessel was used than for the CO releasing systems, and therefore, the absolute values for Cmax differ.

[1] = trigger in aqueous solution in molar excess

Compound: [C-]#[N+]CC(=O)O.[C-]#[N+]CC(=O)O.[C-]#[N+]CC(=O)O.[C-]#[O+].[C-]#[O+].[C-]#[O+].[Mo] [Entry 1, Mo(CO)3(CNCH2CO2H)3]
- C90% (90% of Cmax) (free carbonyl measured in a different release vessel): 576.7 ppm
- T90% (time point at which 90% of Cmax were released) [1]: 17 min
- Tmax (time at which Cmax was measured) [1]: 44 min
- Cmax (highest value measured for the therapeutic gas concentration) (trigger in aqueous solution in molar excess, free carbonyl measured in a different release vessel than the OCORS systems): 640.8 ppm
